Reference: ChEMBL document CHEMBL1134900, “Substituted 3-amino biaryl propionic acids as potent VLA-4 antagonists” (Bioorg Med Chem Lett, 2002)

How the values were obtained:
[1] = Compound was tested for its plasma volume distribution in Sprague Dawley rats; conditions: rat
[2] = Compound was tested for its plasma half life in Sprague Dawley rats; conditions: rat
[3] = Compound was tested for its plasma clearance rate in Sprague Dawley rats; conditions: rat
in vivo = conditions: rhesus monkey, plasma, iv, 0.75 mg/kg
Description: Compound was tested for its plasma clearance rate in rhesus monkey at a dose of 0.75 mg/kg iv/ 1.5 mg/kg po

| SMILES | Vd [1] [L/kg] | half-life [2] [min] | clearance [3] [mL/min/kg] | clearance (in vivo) [mL/min/kg] |
| --- | --- | --- | --- | --- |
| COc1cccc(OC(F)(F)F)c1-c1ccc([C@@H](CC(=O)O)NC(=O)[C@]2(C)CCCN2S(=O)(=O)c2cc(Cl)cc(Cl)c2)cc1 | 1.1 | 96 | 24.9 | – |
| COc1cc(F)cc(-c2ccc([C@@H](CC(=O)O)NC(=O)[C@]3(C)CCCN3S(=O)(=O)c3cc(Cl)cc(Cl)c3)cc2)c1 | 0.12 | 54 | 2.5 | – |
| COc1ccc(F)cc1-c1ccc([C@@H](CC(=O)O)NC(=O)[C@@H]2CCCN2S(=O)(=O)c2cc(Cl)cc(Cl)c2)cc1 | 0.58 | 180 | 13.1 | – |
| COc1ccccc1-c1ccc([C@@H](CC(=O)O)NC(=O)[C@@H]2CCN2S(=O)(=O)c2cc(Cl)cc(Cl)c2)cc1 | 0.12 | 144 | 5 | 22.1 |
| COc1ccc([C@@H](CC(=O)O)NC(=O)[C@@H]2CCN2S(=O)(=O)c2cc(Cl)cc(Cl)c2)cc1 | 1.5 | 66 | 22.1 | – |

The next lines start with the values.

| Vd [1] [L/kg] | half-life [2] [min] | clearance [3] [mL/min/kg] | clearance (in vivo) [mL/min/kg] | SMILES |
| --- | --- | --- | --- | --- |
| 0.13 | 78 | 2.3 | – | COc1cccc(F)c1-c1ccc([C@@H](CC(=O)O)NC(=O)[C@]2(C)CCCN2S(=O)(=O)c2cc(Cl)cc(Cl)c2)cc1 |
| – | – | 14.6 | – | COc1cc(F)ccc1-c1ccc([C@@H](CC(=O)O)NC(=O)[C@@H]2CCCN2S(=O)(=O)c2cc(Cl)cc(Cl)c2)cc1 |
| 0.08 | 72 | 2.3 | – | COc1ccc(F)cc1-c1ccc([C@@H](CC(=O)O)NC(=O)[C@]2(C)CCCN2S(=O)(=O)c2cc(Cl)cc(Cl)c2)cc1 |
| 1.4 | 108 | 51.6 | – | COc1cccc(OC)c1-c1ccc([C@@H](CC(=O)O)NC(=O)[C@@H]2CCCN2S(=O)(=O)c2cc(Cl)cc(Cl)c2)cc1 |
| 0.08 | 78 | 1.1 | – | COc1ccccc1-c1ccc([C@@H](CC(=O)O)NC(=O)[C@H]2CCCN2S(=O)(=O)c2cc(Cl)cc(Cl)c2)cc1 |
| 0.19 | 42 | 16.3 | – | COc1cccc(F)c1-c1ccc([C@@H](CC(=O)O)NC(=O)[C@@H]2CCCN2S(=O)(=O)c2cc(Cl)cc(Cl)c2)cc1 |
